Results from patent publication US11541056B2, “3-hydroxy-N-(3-(7H-pyrrolo[2,3-d]pyrimidin-4-yl)phenyl)pyrrolidine-1-carboxamide derivatives” (NOVARTIS AG, priority 2018, dated 2023).

Assays:
BTK-GFP = target: T1, BTK-GFP (Homo sapiens, UniProt Q06187+Q96SW2); test: BTK-GFP protein abundance flow cytometry assay in HEK293A cells; assay type: cell-based; conditions: 24 h; for BTK deg Amax %: % protein remaining at concentration of maximum degradation; for DC50: concentration at which 50% maximal degradation was observed
T1 construct: the BTK open reading frame (ORF) was first shuttled from a pcDNA-DEST40-BTK vector (Invitrogen library ID INV_20090504v1); expressed in transfected cells; host or cells: HEK293A cells (Invitrogen R70507), lentiviral transduction with pLenti6-BTK-GFP-Ires-RFP, blasticidin-selected
Procedure: Compounds of the invention were tested in the following cellular assays. The terms in Table 1 are defined as follows: DC50 refers to the concentration at which 50% maximal degradation was observed; deg Amax is the extent of degradation and the value refers to the % protein remaining at the concentration at which maximum degradation is seen; Prol GI50 refers to the proliferation data and defines the concentration at which 50% growth inhibition was observed compared to the vehicle treated control at the end of the incubation time. TMD8 cells are BTK dependent and OCI-LY3 cells are BTK independent.
(§1) BTK-GFP and IKZF3-GFP Protein Abundance Flow Cytometry Assay in HEK293A Cells:
(§2) Degradation of BTK or IKZF3 was measured in HEK293A cells (Invitrogen R70507) expressing either BTK-GFP and RFP or IKZF3-GFP and RFP from a stably integrated bicistronic BTK-GFP-iresRFP or IKZF3-GFP-iresRFP construct, respectively. Reduction of the GFP signal measured by flow cytometry served as readout for BTK or IKZF3 degradation after degrader treatment.
(§3) Stable HEK293A-BTK-GFP-iresRFP cells were maintained in complete growth medium (DMEM high Glucose+10% FCS+1% L-Glutamine+1% NEAA+1% NaPyr.) with passaging performed twice per week. On Day 0, HEK293A-BTK-GFP-iresRFP or HEK293A-IKZF3-GFP-iresRFP and HEK293A-iresRFP cells were seeded at 10,000 cells/well in a 96-well microtiter plate in 260 μl complete medium. On Day 1, cells were treated in duplicate with 10-point 1:3 dilution series of compound using the HP D300 Digital Dispenser (Tecan). DMSO concentrations were normalized across the plate to 0.1%. On Day 2, after 24 h of incubation at 37° C., treatment media was discarded, cells rinsed with 100 ul/well PBS and then detached using 40 ul trypsin/well for 5 min. Trypsin was neutralized with 100 ul/well PBS+20% FCS). Flow cytometry was performed on the samples using the BD FACS CANTO II (Becton Dickinson). Cell identification was then performed using forward (FSC) vs. side scatter (SSC) plots. Single cell discrimination is performed using SSC-Width (SSC-W) vs. SSC-Height (SSC-H) plots. Median GFP values for 5,000 single cells are used to determine BTK levels. Median GFP values from HEK293A-iresRFP are used as a background signal and thus defining 0% BTK signal. Median GFP values from DMSO treated HEK293A-BTK-GFP-iresRFP or HEK293A-IKZF3-GFP-iresRFP are used to define 100% BTK signal for subsequent DC50 curves (concentration at 50% BTK degradation). GFP and RFP are read in the channels called FITC and PE, respectively.
(§4) Concentration response curves plotting relative reduction of the GFP signal (measured by flow cytometry) versus 10 compound concentrations (starting concentration 10 μM, 3 fold dilution steps) of the compounds allowed generation of DC50 values.

IKZF3-GFP = target: T2, IKZF3-GFP (Homo sapiens, UniProt Q9UKT9); test: IKZF3-GFP protein abundance flow cytometry assay in HEK293A cells; assay type: cell-based; conditions: 24 h, Table 1; for IKZF3 deg Amax %: % protein remaining at maximum degradation
T2 construct: gateway cloning of IKZF3 from a pENTR221-IKZF3(STOP-Leu) construct into the previously described pLenti6-DEST-GFP-Ires-RFP vector; expressed in transfected cells; host or cells: HEK293A cells (Invitrogen R70507), lentiviral transduction with pLenti6-IKZF3-GFP-Ires-RFP, blasticidin-selected
Procedure: Compounds of the invention were tested in the following cellular assays. […] TMD8 cells are BTK dependent and OCI-LY3 cells are BTK independent.
as §1, §2, §3, §4
Data is shown in Table 2, in which, DC50 refers to the concentration at which 50% maximal degradation was observed; deg Amax is the extent of degradation and the value refers to the % protein remaining at the concentration at which maximum degradation is seen.

T2 sequence (Q96SW2 whole entry partner): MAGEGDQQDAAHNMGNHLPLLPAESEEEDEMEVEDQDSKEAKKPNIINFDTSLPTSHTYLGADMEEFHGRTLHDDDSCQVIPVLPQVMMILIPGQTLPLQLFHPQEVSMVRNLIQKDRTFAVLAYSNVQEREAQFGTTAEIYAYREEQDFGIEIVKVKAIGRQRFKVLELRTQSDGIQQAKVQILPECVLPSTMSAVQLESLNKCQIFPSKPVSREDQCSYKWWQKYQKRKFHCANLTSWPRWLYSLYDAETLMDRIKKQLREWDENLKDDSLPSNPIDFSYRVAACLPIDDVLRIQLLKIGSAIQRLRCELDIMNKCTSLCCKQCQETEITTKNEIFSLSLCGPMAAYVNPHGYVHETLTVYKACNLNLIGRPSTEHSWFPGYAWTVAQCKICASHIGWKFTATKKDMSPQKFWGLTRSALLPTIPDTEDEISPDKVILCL
T2 sequence (Q16531 whole entry partner): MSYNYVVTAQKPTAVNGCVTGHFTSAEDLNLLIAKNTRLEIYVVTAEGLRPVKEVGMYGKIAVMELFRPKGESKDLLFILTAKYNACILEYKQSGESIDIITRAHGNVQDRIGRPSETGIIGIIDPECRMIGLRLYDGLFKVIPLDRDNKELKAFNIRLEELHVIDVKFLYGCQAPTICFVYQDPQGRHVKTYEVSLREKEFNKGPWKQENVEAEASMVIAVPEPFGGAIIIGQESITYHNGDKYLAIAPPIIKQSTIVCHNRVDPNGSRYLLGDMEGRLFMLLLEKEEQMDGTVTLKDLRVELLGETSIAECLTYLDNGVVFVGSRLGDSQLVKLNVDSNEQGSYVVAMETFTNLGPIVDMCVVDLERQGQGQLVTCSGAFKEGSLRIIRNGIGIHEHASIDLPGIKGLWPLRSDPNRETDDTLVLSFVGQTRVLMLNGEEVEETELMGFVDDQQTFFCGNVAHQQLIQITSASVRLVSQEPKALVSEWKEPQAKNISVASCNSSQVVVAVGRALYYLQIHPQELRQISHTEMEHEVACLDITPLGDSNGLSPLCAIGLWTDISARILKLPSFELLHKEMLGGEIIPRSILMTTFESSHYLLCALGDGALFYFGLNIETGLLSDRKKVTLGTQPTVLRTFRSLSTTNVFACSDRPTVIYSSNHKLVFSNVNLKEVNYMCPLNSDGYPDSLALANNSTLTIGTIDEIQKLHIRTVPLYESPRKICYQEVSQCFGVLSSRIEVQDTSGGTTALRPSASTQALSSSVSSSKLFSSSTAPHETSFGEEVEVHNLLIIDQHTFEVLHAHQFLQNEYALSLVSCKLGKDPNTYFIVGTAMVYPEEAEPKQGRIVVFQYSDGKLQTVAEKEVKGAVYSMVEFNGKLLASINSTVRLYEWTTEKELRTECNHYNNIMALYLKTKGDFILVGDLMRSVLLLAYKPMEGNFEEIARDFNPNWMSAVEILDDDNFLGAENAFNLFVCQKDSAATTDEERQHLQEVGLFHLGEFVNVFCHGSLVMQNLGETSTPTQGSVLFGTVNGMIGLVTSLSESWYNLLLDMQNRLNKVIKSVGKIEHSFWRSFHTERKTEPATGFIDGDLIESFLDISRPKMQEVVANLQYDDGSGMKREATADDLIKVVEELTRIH
T2 sequence (Q9UKT9 whole entry): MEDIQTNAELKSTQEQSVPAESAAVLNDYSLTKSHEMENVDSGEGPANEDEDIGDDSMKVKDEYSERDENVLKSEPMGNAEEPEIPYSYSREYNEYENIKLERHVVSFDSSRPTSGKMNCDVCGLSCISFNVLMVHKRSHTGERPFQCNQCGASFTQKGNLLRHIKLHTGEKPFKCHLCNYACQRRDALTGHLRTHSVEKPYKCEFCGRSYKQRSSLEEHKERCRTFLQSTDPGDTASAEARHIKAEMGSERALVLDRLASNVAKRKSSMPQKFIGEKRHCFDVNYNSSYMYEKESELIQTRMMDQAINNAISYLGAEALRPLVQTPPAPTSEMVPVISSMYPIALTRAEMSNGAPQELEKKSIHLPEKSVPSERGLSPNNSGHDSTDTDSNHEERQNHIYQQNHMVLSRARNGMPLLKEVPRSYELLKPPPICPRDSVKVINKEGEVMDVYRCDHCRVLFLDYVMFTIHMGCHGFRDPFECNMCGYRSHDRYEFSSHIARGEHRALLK
T1 sequence (Q06187 whole entry): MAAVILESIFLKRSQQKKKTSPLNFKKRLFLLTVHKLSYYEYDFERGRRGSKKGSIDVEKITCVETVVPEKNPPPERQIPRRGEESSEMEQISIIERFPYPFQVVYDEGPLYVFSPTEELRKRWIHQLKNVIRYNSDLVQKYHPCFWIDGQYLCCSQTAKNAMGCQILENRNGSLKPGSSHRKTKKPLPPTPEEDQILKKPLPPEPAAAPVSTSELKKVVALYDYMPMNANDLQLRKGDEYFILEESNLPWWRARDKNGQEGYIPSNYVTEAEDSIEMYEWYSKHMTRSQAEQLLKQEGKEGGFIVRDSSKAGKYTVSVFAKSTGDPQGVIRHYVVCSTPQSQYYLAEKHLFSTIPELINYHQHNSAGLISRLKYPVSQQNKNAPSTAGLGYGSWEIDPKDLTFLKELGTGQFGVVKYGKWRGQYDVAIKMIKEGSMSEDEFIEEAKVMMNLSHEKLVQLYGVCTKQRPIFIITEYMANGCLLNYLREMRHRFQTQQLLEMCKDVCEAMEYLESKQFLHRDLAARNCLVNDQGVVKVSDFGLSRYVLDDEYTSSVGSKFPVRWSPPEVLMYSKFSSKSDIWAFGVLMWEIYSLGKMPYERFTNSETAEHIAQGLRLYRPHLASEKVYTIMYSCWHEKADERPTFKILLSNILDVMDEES
T1 sequence (Q96SW2 whole entry): as the sequence (Q96SW2 whole entry partner) above
T1 sequence (Q16531 whole entry partner): as the sequence (Q16531 whole entry partner) above

BTK deg Amax % (BTK-GFP) [%] | DC50 (BTK-GFP) [nM] | IKZF3 deg Amax % (IKZF3-GFP) [%] | DC50 (IKZF3-GFP) [µM] | SMILES
6.2 | 3.4 | 93.5 | > 3.3 | COc1ccc(C(=O)N2CCC3(CCN(Cc4ccc(-c5cc6c(-c7cc(F)cc(NC(=O)N8C[C@H](CC(C)C)[C@@H](O)C8)c7C)ncnc6[nH]5)cc4)CC3)CC2)cc1N1CCC(=O)NC1=O [Compound 6, (3R,4S)—N-(3-(6-(4-((9-(3-(2,4-Dioxotetrahydropyrimidin-1(2H)-yl)-4-methoxybenzoyl)-3,9-diazaspiro[5.5]undecan-3-yl)methyl)phenyl)-7H-pyrrolo[2,3-d]pyrimidin-4-yl)-5-fluoro-2-methylphenyl)-3-hydroxy-4-isobutylpyrrolidine-1-carboxamide]
2.9 | 0.5 | 99.7 | > 3.3 | COc1ccc(C(=O)N2CCC(OC3CCN(CCc4ccc(-c5cc6c(-c7cc(F)cc(NC(=O)N8C[C@H](CC(C)C)[C@@H](O)C8)c7C)ncnc6[nH]5)cc4)CC3)CC2)cc1N1CCC(=O)NC1=O [Compound 13, (3R,4S)—N-(3-(6-(4-(2-(4-((1-(3-(2,4-Dioxotetrahydropyrimidin-1(2H)-yl)-4-methoxybenzoyl)piperidin-4-yl)oxy)piperidin-1-yl)ethyl)phenyl)-7H-pyrrolo[2,3-d]pyrimidin-4-yl)-5-fluoro-2-methylphenyl)-3-hydroxy-4-isobutylpyrrolidine-1-carboxamide]
4.3 | 0.7 | 104.0 | > 1.1 | COc1ccc(C(=O)N2CCC(CN3CCN(Cc4ccc(-c5cc6c(-c7cc(F)cc(NC(=O)N8C[C@H](CC(C)C)[C@@H](O)C8)c7C)ncnc6[nH]5)cc4)CC3)CC2)cc1N1CCC(=O)NC1=O [Compound 12, (3R,4S)—N-(3-(6-(4-((4-((1-(3-(2,4-Dioxotetrahydropyrimidin-1(2H)-yl)-4-methoxybenzoyl)piperidin-4-yl)methyl)piperazin-1-yl)methyl)phenyl)-7H-pyrrolo[2,3-d]pyrimidin-4-yl)-5-fluoro-2-methylphenyl)-3-hydroxy-4-isobutylpyrrolidine-1-carboxamide]
1.4 | 1.4 | 100.2 | > 1.1 | COc1ccc(C(=O)N2CCC(CCN3CCC(OCc4ccc(-c5cc6c(-c7cc(F)cc(NC(=O)N8C[C@H](CC(C)C)[C@@H](O)C8)c7C)ncnc6[nH]5)cc4)CC3)CC2)cc1N1CCC(=O)NC1=O [Compound 22, (3R,4S)—N-(3-(6-(4-(((1-(2-(1-(3-(2,4-Dioxotetrahydropyrimidin-1 (2H)-yl)-4-methoxybenzoyl)piperidin-4-yl)ethyl)piperidin-4-yl)oxy)methyl)phenyl)-7H-pyrrolo[2,3-d]pyrimidin-4-yl)-5-fluoro-2-methylphenyl)-3-hydroxy-4-isobutylpyrrolidine-1-carboxamide]
2.3 | 0.6 | 96.7 | > 10 | COc1ccc(C(=O)N2CCC(CN3CCC(Oc4ccc(-c5cc6c(-c7cc(F)cc(NC(=O)N8C[C@H](CC(C)C)[C@@H](O)C8)c7C)ncnc6[nH]5)cc4)CC3)CC2)cc1N1CCC(=O)NC1=O [Compound 11, (3R,4S)—N-(3-(6-(4-((1-((1-(3-(2,4-Dioxotetrahydropyrimidin-1 (2H)-yl)-4-methoxybenzoyl)piperidin-4-yl)methyl)piperidin-4-yl)oxy)phenyl)-7H-pyrrolo[2,3-d]pyrimidin-4-yl)-5-fluoro-2-methylphenyl)-3-hydroxy-4-isobutylpyrrolidine-1-carboxamide]
15 | 164 | 102.7 | > 1.1 | COc1ccc(C(=O)N2CCC3(CCN(Cc4ccc(-c5cc6c(-c7cc(F)cc(NC(=O)N8C[C@@H](CC(C)C)[C@H](O)C8)c7C)ncnc6[nH]5)cc4)CC3)CC2)cc1N1CCC(=O)NC1=O [Compound 1, (3S,4R)—N-(3-(6-(4-((9-(3-(2,4-Dioxotetrahydropyrimidin-1(2H)-yl)-4-methoxybenzoyl)-3,9-diazaspiro[5.5]undecan-3-yl)methyl)phenyl)-7H-pyrrolo[2,3-d]pyrimidin-4-yl)-5-fluoro-2-methylphenyl)-3-hydroxy-4-isobutylpyrrolidine-1-carboxamide]
4.5 | 1 | 107.4 | > 1 | COc1ccc(C(=O)N2CCC(OC3CCN(Cc4ccc(-c5cc6c(-c7cc(F)cc(NC(=O)N8C[C@H](CC(C)C)[C@@H](O)C8)c7C)ncnc6[nH]5)cc4)CC3)CC2)cc1N1CCC(=O)NC1=O [Compound 8, (3R,4S)—N-(3-(6-(4-((4-((1-(3-(2,4-Dioxotetrahydropyrimidin-1(2H)-yl)-4-methoxybenzoyl)piperidin-4-yl)oxy)piperidin-1-yl)methyl)phenyl)-7H-pyrrolo[2,3-d]pyrimidin-4-yl)-5-fluoro-2-methylphenyl)-3-hydroxy-4-isobutylpyrrolidine-1-carboxamide]
4 | 1.8 | 100.2 | > 5.5 | COc1ccc(C(=O)N2CCC3(CCN(CCc4ccc(-c5cc6c(-c7cc(F)cc(NC(=O)N8C[C@H](CC(C)C)[C@@H](O)C8)c7C)ncnc6[nH]5)cc4)CC3)CC2)cc1N1CCC(=O)NC1=O [Compound 15, (3R,4S)—N-(3-(6-(4-(2-(9-(3-(2,4-Dioxotetrahydropyrimidin-1(2H)-yl)-4-methoxybenzoyl)-3,9-diazaspiro[5.5]undecan-3-yl)ethyl)phenyl)-7H-pyrrolo[2,3-d]pyrimidin-4-yl)-5-fluoro-2-methylphenyl)-3-hydroxy-4-isobutylpyrrolidine-1-carboxamide]
2 | 1.4 | 101.8 | > 3.3 | COc1ccc(C(=O)N2CCC(OCCN3CCN(Cc4ccc(-c5cc6c(-c7cc(F)cc(NC(=O)N8C[C@H](CC(C)C)[C@@H](O)C8)c7C)ncnc6[nH]5)cc4)CC3)CC2)cc1N1CCC(=O)NC1=O [Compound 2, (3R,4S)—N-(3-(6-(4-((4-(2-((1-(3-(2,4-Dioxotetrahydropyrimidin-1 (2H)-yl)-4-methoxybenzoyl)piperidin-4-yl)oxy)ethyl)piperazin-1-yl)methyl)phenyl)-7H-pyrrolo[2,3-d]pyrimidin-4-yl)-5-fluoro-2-methylphenyl)-3-hydroxy-4-isobutylpyrrolidine-1-carboxamide]
4 | 4.9 | 103.7 | > 3.3 | COc1ccc(C(=O)N2CCC3(CCN(Cc4ccc(-c5cc6c(-c7cc(F)cc(NC(=O)N8C[C@@H](CC(C)C)[C@H](O)C8)c7C)ncnc6[nH]5)cc4)CC3)CC2)cc1N1CCC(=O)NC1=O (racemic) [Compound 5, trans-rac-N-(3-(6-(4-((9-(3-(2,4-Dioxotetrahydropyrimidin-1(2H)-yl)-4-methoxybenzoyl)-3,9-diazaspiro[5.5]undecan-3-yl)methyl)phenyl)-7H-pyrrolo[2,3-d]pyrimidin-4-yl)-5-fluoro-2-methylphenyl)-3-hydroxy-4-isobutylpyrrolidine-1-carboxamide]
